{
  "source": "patent US20140031227A1",
  "about": "“HERBICIDAL COMPOSITIONS COMPRISING 4-AMINO-3-CHLORO-5-FLUORO-6-(4-CHLORO-2-FLUORO-3-METHOXYPHENYL) PYRIDINE-2-CARBOXYLIC ACID OR A DERIVATIVE THEREOF AND GLYPHOSATE OR GLUFOSINATE” (DOW AGROSCIENCES LLC, priority 2012, published 2014)",
  "format_in_all_cases": "in vivo",
  "key": {"[1]": {"test_system": "ECHCG (Echinochloa crusgalli (L.) Beauv., barnyardgrass)", "assay": "Example I postemergence foliar-applied mixtures, direct seeded rice weeds, greenhouse: ECHCG", "settings": "for Visual Weed Control (%) - 21 DAA ECHCG Obs: glyphosate IPA salt (Glyphomax) alone", "experimental": "(§1) Seeds or nutlets of the desired test plant species were planted in a soil matrix prepared by mixing a loam or sandy loam soil (e.g., 28.6 percent silt, 18.8 percent clay, and 52.6 percent sand, with a pH of about 5.8 and an organic matter content of about 1.8 percent) and calcareous grit in an 80 to 20 ratio. The soil matrix was contained in plastic pots with a volume of 1 quart and a surface area of 83.6 square centimeters (cm^2). […] The plants were grown for 8-22 days in a greenhouse with an approximate 14 hr photoperiod which was maintained at about 29° C. during the day and 26° C. during the night. Nutrients (Peters Excel® 15-5-15 5-Ca 2-Mg and iron chelate) were applied in the irrigation solution as needed and water was added on a regular basis. Supplemental lighting was provided with overhead metal halide 1000-Watt lamps as necessary. The plants were employed for testing when they reached the first through fourth true leaf stage.\n(§2) Treatments consisted of the acid or esters of 4-amino-3-chloro-5-fluoro-6-(4-chloro-2-fluoro-3-methoxy-phenyl)pyridine-2-carboxylic acid (Compound A), each formulated as an SC (suspension concentrate), and various herbicidal components alone and in combination. Forms of compound A were applied on an acid equivalent basis.\n(§3) For treatments comprised of formulated compounds, measured amounts of compounds were placed individually in 25 mL glass vials and diluted in a volume of 1.25% (v/v) Agri-Dex® crop oil concentrated to obtain 12× stock solutions. […] Application solutions were prepared by adding an appropriate amount of each stock solution (e.g., 1 mL) and diluted to the appropriate final concentrations with the addition of 10 mL of an aqueous mixture of 1.25% (v/v) crop oil concentrate so that the final spray solutions contained 1.25+/−0.05% (v/v) crop oil concentrate.\n(§4) All stock solutions and applications solutions were visually inspected for compound compatibility prior to application. Spray solutions were applied to the plant material with an overhead Mandel track sprayer equipped with a 8002E nozzles calibrated to deliver 187 L/ha over an application area of 0.503 m^2 at a spray height of 18 to 20 inches (46 to 50 cm) above average plant canopy height. Control plants were sprayed in the same manner with the solvent blank.\n(§5) The treated plants and control plants were placed in a greenhouse as described above and watered by sub-irrigation to prevent wash-off of the test compounds. After approximately 3 weeks, the condition of the test plants as compared with that of the untreated plants was determined visually and scored on a scale of 0 to 100 percent where 0 corresponds to no injury or growth inhibition and 100 corresponds to complete kill.\n(§6) Colby's equation was used to determine the herbicidal effects expected from the mixtures (Colby, S. R. 1967. Calculation of the synergistic and antagonistic response of herbicide combinations. Weeds 15:20-22.)."}, "[2]": {"test_system": "ECHCO (Echinochloa colona (L.) Link, junglerice)", "assay": "Example I postemergence foliar-applied mixtures, direct seeded rice weeds, greenhouse: ECHCO", "experimental": "as §1, §2, §3, §4, §5, §6"}, "[3]": {"test_system": "LEFCH (Leptochloa chinensis (L.) Nees, Chinese sprangletop)", "assay": "Example I postemergence foliar-applied mixtures, direct seeded rice weeds, greenhouse: LEFCH", "experimental": "as §1, §2, §3, §4, §5, §6"}, "[4]": {"test_system": "IPOHE (Ipomoea hederacea Jacq., ivyleaf morningglory)", "assay": "Example I postemergence foliar-applied mixtures, direct seeded rice weeds, greenhouse: IPOHE", "settings": "for Visual Weed Control (%) - 21 DAA IPOHE Obs: glyphosate IPA salt (Rodeo) alone", "experimental": "as §1, §2, §3, §4, §5, §6"}, "[5]": {"test_system": "DIGSA (Digitaria sanguinalis (L.) Scop., large crabgrass)", "assay": "Example I postemergence foliar-applied mixtures, direct seeded rice weeds, greenhouse: DIGSA", "settings": "glyphosate IPA salt (Durango) alone, 377 gae/ha", "experimental": "as §1, §2, §3, §4, §5, §6"}, "[6]": {"test_system": "SCPMA (Schoenoplectus maritimus (L.) Lye or Bolboschoenus maritimus (L.) Palla, sea clubrush)", "assay": "Example II in-water applied mixtures, transplanted paddy rice weeds, greenhouse: SCPMA", "settings": "glyphosate IPA salt (Rodeo) alone", "experimental": "Weed seeds or nutlets of the desired test plant species were planted in puddled soil (mud) prepared by mixing a shredded, non-sterilized mineral soil (50.5 percent silt, 25.5 percent clay, and 24 percent sand, with a pH of about 7.6 and an organic matter content of about 2.9 percent) and water at a 1:1 volumetric ratio. The prepared mud was dispensed in 365 mL aliquots into 16-ounce (oz.) non-perforated plastic pots with a surface area of 86.59 square centimeters (cm^2) leaving a headspace of 3 centimeters (cm) in each pot. Mud was allowed to dry overnight prior to planting or transplanting. Rice seeds were planted in Sun Gro MetroMix® 306 planting mixture, which typically has a pH of 6.0 to 6.8 and an organic matter content of about 30 percent, in plastic plug trays. Seedlings at the second or third leaf stage of growth were transplanted into 840 mL of mud contained in 32-oz. non-perforated plastic pots with a surface area of 86.59 cm^2 4 days prior to herbicide application. The paddy was created by filling the headspace of the pots with 2.5 to 3 cm of water. […] The plants were grown for 4-22 days in a greenhouse with an approximate 14 hr photoperiod which was maintained at about 29′C during the day and 26° C. during the night. Nutrients were added as Osmocote® (19:6:12, N:P:K+minor nutrients) at 2 g per 16-oz. pot and 4 g per 32-oz. pot. Water was added on a regular basis to maintain the paddy flood, and supplemental lighting was provided with overhead metal halide 1000-Watt lamps as necessary. The plants were employed for testing when they reached the first through fourth true leaf stage.\nas §2, with “(compound A)” for “(Compound A),”, “concentrate)” for “concentrate),”\nFor formulated compounds, a measured amount was placed in an individual 100 or 200 mL glass vial and was dissolved in a volume of 1.25% (v/v) Agri-Dex® crop oil concentrate to obtain application solutions.\nApplications were made by injecting with a pipetter appropriate amounts of the application solutions, individually and sequentially, into the aqueous layer of the paddy. Control plants were treated in the same manner with the solvent blank. Applications were made so that all treated plant material received the same concentrations of acetone and crop oil concentrate.\nas §5, with “water was added as needed” for “watered by sub-irrigation”, “maintain a paddy flood.” for “prevent wash-off of the test compounds.”, “weeks” for “weeks,”\nas §6"}, "[7]": {"settings": "glyphosate IPA salt (Durango) alone, 377 gae/ha"}, "[8]": {"settings": "glyphosate IPA salt (Glyphomax) alone, 124.5 gae/ha"}, "[9]": {"settings": "glyphosate IPA salt (Glyphomax) alone, 249 gae/ha"}, "[10]": {"settings": "glyphosate IPA salt (Rodeo) alone, 105 gae/ha"}, "[11]": {"settings": "glyphosate IPA salt (Rodeo) alone, 210 gae/ha"}, "[12]": {"settings": "Compound A n-Butyl Ester alone, 16 gae/ha"}},
  "note": "Where a name gives a salt, the structure may show the parent alone.",
  "data": [
    {"smiles": "O=C(O)CNCP(=O)(O)O", "note": "[Glyphosate isopropylamine salt, N-(phosphonomethyl)glycine, reference compound]", "values": [
      {"measurement": "Visual Weed Control (%) - 20 DAA ECHCG Obs", "setting": "[1]; [7]", "value": 38, "unit": "%"},
      {"measurement": "Visual Weed Control (%) - 21 DAA ECHCG Obs", "setting": "[1]; 124.5 gae/ha", "value": 0, "unit": "%"},
      {"measurement": "Visual Weed Control (%) - 21 DAA ECHCG Obs", "setting": "[1]; 249 gae/ha", "value": 0, "unit": "%"},
      {"measurement": "Visual Weed Control (%) - 21 DAA ECHCO Obs", "setting": "[2]; [8]", "value": 10, "unit": "%"},
      {"measurement": "Visual Weed Control (%) - 21 DAA ECHCO Obs", "setting": "[2]; [9]", "value": 20, "unit": "%"},
      {"measurement": "Visual Weed Control (%) - 21 DAA ECHCO Obs", "setting": "[2]; [10]", "value": 0, "unit": "%"},
      {"measurement": "Visual Weed Control (%) - 21 DAA ECHCO Obs", "setting": "[2]; [11]", "value": 0, "unit": "%"},
      {"measurement": "Visual Weed Control (%) - 20 DAA LEFCH Obs", "setting": "[3]; [7]", "value": 88, "unit": "%"},
      {"measurement": "Visual Weed Control (%) - 21 DAA LEFCH Obs", "setting": "[3]; [8]", "value": 0, "unit": "%"},
      {"measurement": "Visual Weed Control (%) - 21 DAA LEFCH Obs", "setting": "[3]; [9]", "value": 45, "unit": "%"},
      {"measurement": "Visual Weed Control (%) - 21 DAA LEFCH Obs", "setting": "[3]; [10]", "value": 25, "unit": "%"},
      {"measurement": "Visual Weed Control (%) - 21 DAA LEFCH Obs", "setting": "[3]; [11]", "value": 75, "unit": "%"},
      {"measurement": "Visual Weed Control (%) - 21 DAA LEFCH Obs", "setting": "[3]; glyphosate IPA salt (Rodeo) alone, 420 gae/ha", "value": 90, "unit": "%"},
      {"measurement": "Visual Weed Control (%) - 21 DAA IPOHE Obs", "setting": "[4]; 105 gae/ha", "value": 15, "unit": "%"},
      {"measurement": "Visual Weed Control (%) - 21 DAA IPOHE Obs", "setting": "[4]; 210 gae/ha", "value": 25, "unit": "%"},
      {"measurement": "Visual Weed Control (%) - 21 DAA IPOHE Obs", "setting": "[4]; 420 gae/ha", "value": 55, "unit": "%"},
      {"measurement": "Visual Weed Control (%) - 20 DAA DIGSA Obs", "setting": "[5]", "value": 10, "unit": "%"},
      {"measurement": "Visual Weed Control (%) - 21 DAA SCPMA Obs", "setting": "[6]; 210 gae/ha", "value": 0, "unit": "%"},
      {"measurement": "Visual Weed Control (%) - 21 DAA SCPMA Obs", "setting": "[6]; 420 gae/ha", "value": 0, "unit": "%"}
    ]},
    {"smiles": "CCCCOC(=O)c1nc(-c2ccc(Cl)c(OC)c2F)c(F)c(N)c1Cl", "note": "[Compound A n-Butyl Ester]", "values": [
      {"measurement": "Visual Weed Control (%) - 20 DAA ECHCG Obs", "setting": "[1]; [12]", "value": 65, "unit": "%"},
      {"measurement": "Visual Weed Control (%) - 20 DAA LEFCH Obs", "setting": "[3]; [12]", "value": 10, "unit": "%"},
      {"measurement": "Visual Weed Control (%) - 20 DAA IPOHE Obs", "setting": "[4]; [12]", "value": 15, "unit": "%"}
    ]}
  ]
}
